Values joined by “and” are separate entries in the source; they are usually repeats but may differ in a detail not shown here. Equal values may be shown once.
Experiments:
[1] = target: T1, BCL-xL/PROTAC/VHL-ELOC-ELOB (VCB) ternary complex (Homo sapiens, UniProt P40337+Q07817); experiment: AlphaLISA ternary complex formation, cell-free, BCL-xL; assay type: binding; settings: for in vitro ternary complex formation with BCL-xL (in words): AlphaLISA, cell-free, Fig. 2c, 3e; for AlphaLISA signal, BCL-xL/PROTAC/VCB: Fig. 2c raw Alpha reads
T1 construct: pGEX-6P-1-VHL(54-213) (pDL2200) was constructed through Gibson assembly method; made in house; host or cells: bacterial culture (LB broth, IPTG induction)
Method: AlphaLISA assay was used to evaluate the in vitro ternary complex formation between target proteins (BCL-xL or BCL-2), PROTAC and E3 ligase (VCB complex). In each well, 5 nM His-tagged BCL-xL or BCL-2 proteins and 5 nM GST-VCB complex was incubated with varying concentrations of compounds in fourfold serial dilutions, to a final volume of 40 µl in a 96-well PCR plate. After incubation at room temperature for 30 min, 5 µl alpha glutathione-donor beads (Cat. No. 6765300, PerkinElmer) were added to each well (20 µg/ml final concentration) and incubated for another 15 min. Thereafter, 5 µL 6× His-acceptor beads were added to each well (20 µg/ml final concentration) and incubated for an additional 45 min at room temperature. Thereafter, 17 µl of each sample was transferred in adjacent wells of a 384-well proxy plate, and the plate was scanned using the Alpha program on Biotek’s Synergy Neo2 multimode plate reader. The data were expressed as average AlphaLISA signal and plotted against different concentrations of compounds using GraphPad Prism 9 software.

[2] = system: BCL-xL/PROTAC/VCB ternary complex (HiBit-BCL-xL, HaloTag-VHL); experiment: NanoBRET intracellular ternary complex formation in 293T cells, BCL-xL; assay type: cell-based, human; settings: NanoBRET, 293T cells, 6 h
Procedure, shortened: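 293T cells were transfected with HiBit-BCL-xL or HiBit-BCL-2 plus HaloTag-VHL and incubated overnight with or without HaloTag NanoBRET 618 ligand in 4% FBS Opti-MEM. Serially diluted compounds were applied for 6 h at 37 °C. mBRET ratio from donor emission (450/50 nm) and acceptor emission (610 nm longpass) after Nano-Glo substrate.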

[3] = compound 200000 nM, 2 technical replicates

T1 sequence (Q07817 1-212 limits assumed): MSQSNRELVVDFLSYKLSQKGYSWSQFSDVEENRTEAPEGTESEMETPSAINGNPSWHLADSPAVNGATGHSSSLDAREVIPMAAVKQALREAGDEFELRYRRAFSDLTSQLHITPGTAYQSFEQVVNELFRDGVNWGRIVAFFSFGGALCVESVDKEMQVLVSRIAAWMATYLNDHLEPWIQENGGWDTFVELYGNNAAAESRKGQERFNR
T1 sequence (P40337 54-213 limits assumed): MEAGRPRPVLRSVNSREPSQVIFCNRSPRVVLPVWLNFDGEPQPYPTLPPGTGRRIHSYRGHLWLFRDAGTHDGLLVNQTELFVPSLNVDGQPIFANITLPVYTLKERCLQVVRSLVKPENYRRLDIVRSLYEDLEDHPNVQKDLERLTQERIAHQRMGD
T1 sequence (Q15369 17-112 partner limits assumed): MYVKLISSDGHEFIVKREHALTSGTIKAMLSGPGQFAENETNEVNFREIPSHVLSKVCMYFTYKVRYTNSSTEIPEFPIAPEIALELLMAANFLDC
T1 sequence (Q15370 whole entry partner): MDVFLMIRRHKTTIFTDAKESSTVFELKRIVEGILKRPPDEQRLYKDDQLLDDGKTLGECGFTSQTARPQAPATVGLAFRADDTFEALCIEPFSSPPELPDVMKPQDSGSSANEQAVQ

| in vitro ternary complex formation with BCL-xL (in words) [1] | AlphaLISA signal, BCL-xL/PROTAC/VCB ([1]; compound 0.191 nM) | AlphaLISA signal, BCL-xL/PROTAC/VCB ([1]; compound 0.763 nM) | AlphaLISA signal, BCL-xL/PROTAC/VCB ([1]; compound 3.052 nM) | AlphaLISA signal, BCL-xL/PROTAC/VCB ([1]; compound 12.207 nM) | AlphaLISA signal, BCL-xL/PROTAC/VCB ([1]; compound 48.828 nM) | AlphaLISA signal, BCL-xL/PROTAC/VCB ([1]; compound 195.31 nM) | AlphaLISA signal, BCL-xL/PROTAC/VCB ([1]; compound 781.25 nM) | AlphaLISA signal, BCL-xL/PROTAC/VCB ([1]; compound 3125 nM) | AlphaLISA signal, BCL-xL/PROTAC/VCB ([1]; compound 12500 nM) | AlphaLISA signal, BCL-xL/PROTAC/VCB ([1]; compound 50000 nM) | AlphaLISA signal, BCL-xL/PROTAC/VCB [1, 3] | Structure (SMILES) | intracellular ternary complex formation with BCL-xL (in words) [2] |
| --- | --- | --- | --- | --- | --- | --- | --- | --- | --- | --- | --- | --- | --- |
| stronger ternary complexes | 15802 and 16724 | 18968 and 16877 | 31177 and 28685 | 217997 and 245739 | 796343 and 866530 | 952961 and 938632 | 936762 and 1084189 | 603765 and 595968 | 155340 and 139952 | 73929 and 84434 | 25477 and 29119 | Cc1ncsc1-c1ccc([C@H](C)NC(=O)[C@@H]2C[C@@H](O)CN2C(=O)[C@@H](NC(=O)CCCCC(=O)N2CCN(CC3(C)CCC(c4ccc(Cl)cc4)=C(CN4CCN(c5ccc(C(=O)NS(=O)(=O)c6ccc(N[C@H](CCN7CCOCC7)CSc7ccccc7)c(S(=O)(=O)C(F)(F)F)c6)cc5)CC4)C3)CC2)C(C)(C)C)cc1 (some centres unmarked) [PPC6] | stronger BCL-xL/PROTAC/VHL-EloC-EloB (VCB) ternary complexes |
| stronger ternary complexes | 16342 and 14008 | 13825 and 16199 | 18964 and 20836 | 75292 and 75299 | 594562 and 681817 | 1206651 and 1333081 | 1103207 and 1035637 | 530944 and 584971 | 158302 and 141290 | 39339 and 47417 | 23853 and 20524 | Cc1ncsc1-c1ccc([C@H](C)NC(=O)[C@@H]2C[C@@H](O)CN2C(=O)[C@@H](NC(=O)CCCCCC(=O)N2CCN(CC3(C)CCC(c4ccc(Cl)cc4)=C(CN4CCN(c5ccc(C(=O)NS(=O)(=O)c6ccc(N[C@H](CCN7CCOCC7)CSc7ccccc7)c(S(=O)(=O)C(F)(F)F)c6)cc5)CC4)C3)CC2)C(C)(C)C)cc1 (some centres unmarked) [PPC7] | stronger BCL-xL/PROTAC/VHL-EloC-EloB (VCB) ternary complexes |
